Assay results: patent US4737518A, “Lipid derivatives, their production and use” (Takeda Chemical Industries, Ltd., priority 1984, dated 1988)

Columns and labels:
[1] = test system: rabbit platelet aggregation by PAF; assay: Inhibitory activity on rabbit platelet aggregation by PAF; format: cell-based; settings: Oryctolagus cuniculus, PAF 1×10^-8 M, read-out: rate of inhibition of rabbit platelet aggregation by PAF; for inhibition at 30 µM: test drug 3 × 10^-5 M; for inhibition at 3 µM: test drug 3 × 10^-6 M; for inhibition at 0.3 µM: test drug 3 × 10^-7 M; for inhibition at 0.03 µM: test drug 3 × 10^-8 M
PAF-induced hypotension = assay: Inhibitory activity against PAF-induced hypotension in rats; format: in vivo, rat (male Spraque-Dawley); settings: PAF 0.3 μg/kg i.v.
Experimental: Inhibitory activity against PAF-induced hypotension in rats
Male Spraque-Dawley rats, with a body weight of about 400 g, were used under pentobarbital sodium (50 mg/kg, intravenous administration) anesthesia. A cannula was inserted into the femoral artery and secured in position for measurement of blood pressure and another cannula into the femoral vein for administration of a solution of the drug. The blood pressure was measured via a pressure transducer and recorded on a polygraph. First, 0.3 μg/kg of PAF was administered intravenously and the hypotensive response was recorded.
The inhibitory activity against PAF-induced hypotension was estimated from the rate of PAF-induced hypotensive response (Δ mmHg) after the drug administration to hypotensive response (Δ mmHg) by PAF before the drug administration.

CCCCCCCCCCCCCCCCCCOCC(COC(=O)N(CC[N+](C)(C)C)C(C)=O)NC(C)=O (stereo not drawn) [Example 20, 1-Octadecyloxy-2-acetamido-3-[N-acetyl-N-(2'-trimethylammonioethyl)]carbamoyloxypropane iodide]
inhibition at 30 µM [1]: 100% | inhibition at 3 µM [1]: 100%

CCCCCCCCCCCCCCCCCCNC(=O)OCC(COC(=O)N(C(C)=O)C1CCC[N+](C)(CC)C1)OC (stereo not drawn) [Example 161, 3-[N-Acetyl-N-(3-octadecylcarbamoyloxy-2-methoxypropoxycarbonyl)]amino-1-ethyl-1-methylpiperidinium chloride]
inhibition at 30 µM [1]: 100% | inhibition at 3 µM [1]: 100% | inhibition at 0.3 µM [1]: 6%

CCCCCCCCCCCCCCCCCCNC(=O)OCC(Cn1ccc(=O)n(CC[N+](C)(C)C)c1=O)OC (stereo not drawn) [Example 136, N-[2-{1-(3-Octadecylcarbamoyloxy-2-methoxypropyl)uracil-3-yl}ethyl]-N,N,N-trimethylammonium chloride]
inhibition at 30 µM [1]: 100% | inhibition at 3 µM [1]: 100% | inhibition at 0.3 µM [1]: 11%

CCCCCCCCCCCCCCCCCCNC(=O)OCC(COC(=O)N(CC[N+](C)(C)C)C(=O)N(C)C)OC (stereo not drawn) [Example 62, 1-O-[N-Dimethylcarbamoyl-N-(2'-trimethylammonioethyl)]carbamoyl-2-O-methyl-3-O-octadecylcarbamoylglycerol iodide]
inhibition at 30 µM [1]: 100% | inhibition at 3 µM [1]: 34%

CCCCCCCCCCCCCCCCCCNC(=O)OCC(COC(=O)N(CC[N+](C)(C)C)C(=O)OC)OC (stereo not drawn) [Example 56, 2-O-Methyl-1-O-[N-methoxycarbonyl-N-(2'-trimethylammonioethyl)]carbamoyl-3-O-octadecylcarbamoylglycerol iodide]
inhibition at 30 µM [1]: 100% | inhibition at 3 µM [1]: 64%

CCCCCCCCCCCCCCCCCCNC(=O)OCC(COC(=O)N(Cc1cccc[n+]1CC)C(C)=O)OCC (stereo not drawn) [Example 117]
inhibition at 3 µM [1]: 100% | inhibition at 0.3 µM [1]: 100% | Restoration rate (PAF-induced hypotension; 1 mg/kg i.v., after 5 min): 100% | Restoration rate (PAF-induced hypotension; 1 mg/kg i.v., after 60 min): 100%

CCCCCCCCCCCCCCCCCCNC(=O)OCC(COC(=O)N(Cc1csc[n+]1C)C(C)=O)OC (stereo not drawn) [Example 148, 4-[N-Acetyl-N-(3-octadecylcarbamoyloxy-2-methoxypropoxycarbonyl)amino]methyl-3-methylthiazolium iodide]
inhibition at 3 µM [1]: 100% | inhibition at 0.3 µM [1]: 42%

CCCCCCCCCCCCCCCCCCNC(=O)OCC(COC(=O)N(Cc1scc[n+]1CC)C(C)=O)OC.[I-] (stereo not drawn) [Example 143, 2-[N-Acetyl-N-(3-octadecylcarbamoyloxy-2-methoxypropoxycarbonyl)amino]methyl-3-ethylthiazolium iodide]
inhibition at 3 µM [1]: 100% | inhibition at 0.3 µM [1]: 100% | Restoration rate (PAF-induced hypotension; 1 mg/kg i.v., after 5 min): 100% | Restoration rate (PAF-induced hypotension; 1 mg/kg i.v., after 60 min): 100%

CCCCCCCCCCCCCCCCCCNC(=O)OCC(CN1CC(=O)N(CC[n+]2ccsc2)C1=O)OC (stereo not drawn) [Example 110, 1-[(2-methoxy-3-octadecylcarbamoyloxy)propyl]-3-(2-thiazolioethyl)hydantoinchloride]
inhibition at 30 µM [1]: 100% | inhibition at 3 µM [1]: 100% | inhibition at 0.3 µM [1]: 34%

CCCCCCCCCCCCCCCCCCNC(=O)OCC(COC(=O)NCC[n+]1ccsc1)OC (stereo not drawn) [Example 14, 2-O-Methyl-1-O-octadecylcarbamoyl-3-O-(2'-thiazolioethyl)carbamoylglycerol bromide]
inhibition at 30 µM [1]: 100% | inhibition at 3 µM [1]: 52%

CCCCCCCCCCCCCCCCCCNC(=O)OCC(COC(=O)N(Cc1scc[n+]1CCC)C(C)=O)OC (stereo not drawn) [Example 144, 2-[N-Acetyl-N-(3-octadecylcarbamoyloxy-2-methoxypropoxycarbonyl)amino]methyl-3-propylthiazolium iodide]
inhibition at 3 µM [1]: 100% | inhibition at 0.3 µM [1]: 100% | inhibition at 0.03 µM [1]: 9%

CCCCCCCCCCCCCCCCCCNC(=O)OCC(COC(=O)N(Cc1scc[n+]1CCCC)C(C)=O)OC (stereo not drawn) [Example 145, 2-[N-Acetyl-N-(3-octadecylcarbamoyloxy-2-methoxypropoxycarbonyl)amino]methyl-3-butylthiazolium iodide]
inhibition at 3 µM [1]: 100% | inhibition at 0.3 µM [1]: 100%

C=CC[n+]1ccccc1CN(C(C)=O)C(=O)OCC(COC(=O)NCCCCCCCCCCCCCCCCCC)OC (stereo not drawn) [Example 174, 3-[N-Acetyl-N-(N'-allylpyridinio-2-yl)methyl]carbamoyl-1-octadecylcarbamoyl-2-methylglycerol chloride]
inhibition at 30 µM [1]: 100% | inhibition at 3 µM [1]: 100% | inhibition at 0.3 µM [1]: 100%

CCCCCCCCCCCCCCCCCCNC(=O)OCC(COC(=O)N(Cc1csc[n+]1CC)C(C)=O)OC.[I-] (stereo not drawn) [Example 149, 4-[N-Acetyl-N-(3-octadecylcarbamoyloxy-2-methoxypropoxycarbonyl)amino]methyl-3-ethylthiazolium iodide]
inhibition at 3 µM [1]: 100% | inhibition at 0.3 µM [1]: 100% | inhibition at 0.03 µM [1]: 78% | Restoration rate (PAF-induced hypotension; 0.1 mg/kg i.v., after 5 min): 100% | Restoration rate (PAF-induced hypotension; 0.1 mg/kg i.v., after 60 min): 39% | Restoration rate (PAF-induced hypotension; 1 mg/kg i.v., after 5 min): 100% | Restoration rate (PAF-induced hypotension; 1 mg/kg i.v., after 60 min): 100%

CCCCCCCCCCCCCCCCCCNC(=O)OCC(COC(=O)NCC[N+](C)(C)C)OC (stereo not drawn) [Example 10, 2-O-Methyl-1-O-octadecylcarbamoyl-3-O-(2'-trimethylammonioethyl)carbamoylglycerol iodide]
inhibition at 30 µM [1]: 82%

CCCCCCCCCCCCCCCCCCOCC(COC(=O)NCC[N+](C)(C)C)NC(C)=O (stereo not drawn) [Example 19, 1-Octadecyloxy-2-acetamido-3-(2'-trimethylammonioethyl)carbamoyloxypropane iodide]
inhibition at 30 µM [1]: 72%

CCCCCCCCCCCCCCCCCCNC(=O)OCC(COC(=O)N(Cc1scc[n+]1C)C(C)=O)OC.[I-] (stereo not drawn) [Example 142, 2-[N-Acetyl-N-(3-octadecylcarbamoyloxy-2-methoxypropoxycarbonyl)amino]methyl-3-methylthiazolium iodide]
inhibition at 30 µM [1]: 100% | inhibition at 3 µM [1]: 100% | inhibition at 0.3 µM [1]: 100% | inhibition at 0.03 µM [1]: 25% | Restoration rate (PAF-induced hypotension; 1 mg/kg i.v., after 5 min): 100% | Restoration rate (PAF-induced hypotension; 1 mg/kg i.v., after 60 min): 100%

CCCCCCCCCCCCCCCCCCNC(=O)OCC(COC(=O)N(Cc1cccc[n+]1CCC)C(C)=O)OC (stereo not drawn) [Example 173, 3-[N-Acetyl-N-(N'-propylpyridinio-2-yl)methyl]carbamoyl-1-octadecylcarbamoyl-2-methylglycerol chloride]
inhibition at 30 µM [1]: 100% | inhibition at 3 µM [1]: 100% | inhibition at 0.3 µM [1]: 100%

CCCCCCCCCCCCCCCCCCNC(=O)OCC(COC(=O)NCc1scc[n+]1C)OC (stereo not drawn) [Example 140, 2-[N-(3-Octadecylcarbamoyloxy-2-methoxypropoxycarbonyl)amino]methyl-3-methylthiazolium iodide]
inhibition at 30 µM [1]: 100% | inhibition at 3 µM [1]: 100% | inhibition at 0.3 µM [1]: 100% | inhibition at 0.03 µM [1]: 18%

CCCCCCCCCCCCCCCCCCNC(=O)OCC(COC(=O)N(Cc1cccc[n+]1C)C(C)=O)OCC (stereo not drawn) [Example 116]
inhibition at 30 µM [1]: 100% | inhibition at 3 µM [1]: 100% | inhibition at 0.3 µM [1]: 100% | Restoration rate (PAF-induced hypotension; 1 mg/kg i.v., after 5 min): 100% | Restoration rate (PAF-induced hypotension; 1 mg/kg i.v., after 60 min): 77%

CCCCCCCCCCCCCCCCCCOCC(Cn1ccc(=O)n(CC[N+](C)(C)C)c1=O)OC(C)=O (stereo not drawn) [Example 102, 1-(2-Acetyloxy-3-octadecyloxy)propyl-3-(2-trimethylammonioethyl)urasil chloride]
inhibition at 1 µM ([1]; test drug 1 × 10^-6 M): 72% | inhibition at 30 µM [1]: 100% | inhibition at 3 µM [1]: 100%

CCCCCCCCCCCCCCCCCCOCC(COC(=O)NCC[n+]1ccsc1)OCc1ccccc1 (stereo not drawn) [Example 8, 2-O-Benzyl-1-O-octadecyl-3-O-(2'-thiazolioethyl)carbamoylglycerol bromide]
inhibition at 30 µM [1]: 100%
